Source: patent US5055448A, “Linear derivatives of arginine vasopressin antagonists” (Medical College of Ohio, priority 1987, dated 1991)
Numbered stars: 1 amine (or outer) side, 2 acyl side, 3 side chain; on linkers, the order of the positions; unused ones are H or OH. Square brackets hold non-standard residues; d marks the D form. Peptide text beside a SMILES is read from it. * marks the point of attachment. Acetyl(1-adamantyl) = O=C(CC12CC3CC(CC(C3)C1)C2)*; Cyclohexylacetyl(1-SH) = O=C(CC1(S)CCCCC1)*; Ethylenediamine = C(CN[*:2])N[*:1]; Orn = NCCC[C@H](N)C(=O)O; Abu = CC[C@H](N)C(=O)O; X1 = CCC(S)(CC)CC(=O)*; Propionyl = CCC(=O)*

Columns and labels:
[1] = tested on: antidiuretic response to arginine vasopressin; set-up: species or system rats; conditions: rat, in vivo
Experimental: Activity as antidiuretic agonists was determined by intravenous injection of the compounds being evaluated in ethanol-anesthesized water-loaded rats in accordance with Sawyer, Endocrinology, vol. 63 (1958) at 694. Antagonism of the antidiuretic response to subsequent injections of arginine vasopressin was tested by the method of Sawyer et al., Science, vol. 212 (1981) at 49. Antagonistic potencies were determined and expressed as "effective doses" and pA2 values. The "effective dose" is defined as the dose (in nanomoles per kilogram) that reduces the response seen from 2x units of agonist injected 20 min after the dose of antagonist to the response with 1x units of agonist. Estimated in vivo "pA2 " values represent the negative logarithms of the effective doses, divided by the estimated volume of distribution (67 ml/kg).

[2] = tested on: vasopressor response to arginine vasopressin; conditions: in vivo
Experimental: Antagonism to the vasopressor response was estimated in accordance with […] et al., J. Med. Chem., vol. 17 (1974) at 969. The values are expressed as pA2 values, defined as in Schild et al., Br. J. Pharmacol., vol. 2 (1947) at 189. Antagonistic potencies were determined and expressed as "effective doses" and pA2 values. The "effective dose" is defined as the dose (in nanomoles per kilogram) that reduces the response seen from 2x units of agonist injected 20 min after the dose of antagonist to the response with 1x units of agonist. Estimated in vivo "pA2 " values represent the negative logarithms of the effective doses, divided by the estimated volume of distribution (67 ml/kg).

With `CCOc1ccc(C[C@@H](NC(=O)CC)C(=O)N[C@@H](Cc2ccccc2)C(=O)N[C@H](C(=O)N[C@@H](CC(N)=O)C(=O)N[C@@H](CC)C(=O)N2CCC[C@H]2C(=O)N[C@@H](CCCNC(=N)N)C(=O)N[C@@H](CCCNC(=N)N)C(N)=O)C(C)C)cc1` [propionyl-D-(O-ethyl)tyrosyl-phenylalanyl-valyl-asparaginyl-(2-amino)butyryl-prolyl-arginyl-argininamide] (Propionyl-[dY](Et)FVN[Abu]PRR-NH2) the “Antiantidiuretic pA2” value [1] was 7.74 ± 0.07 and the “Antivasopressor pA2” value [2] was 6.71 ± 0.09.

`CCOc1ccc(C[C@@H](NC(=O)CC(S)(CC)CC)C(=O)N[C@@H](Cc2ccccc2)C(=O)N[C@H](C(=O)N[C@@H](CC(N)=O)C(=O)N[C@@H](CC)C(=O)N2CCC[C@H]2C(=O)N[C@@H](CCCNC(=N)N)C(=O)NCC(N)=O)C(C)C)cc1` [(3-ethyl-3-mercapto)valeroyl-D-(O-ethyl)tyrosyl-phenylalanyl-valyl-asparaginyl-(2-amino)butyryl-prolyl-arginyl-glycinamide] (X1-[dY](Et)FVN[Abu]PRG-NH2) was tested, and the “Antiantidiuretic pA2” value [1] was 7.09 ± 0.09 and the “Antivasopressor pA2” value [2] was 6.94 ± 0.04.

`CCOc1ccc(C[C@@H](NC(=O)CC23CC4CC(CC(C4)C2)C3)C(=O)N[C@@H](Cc2ccccc2)C(=O)N[C@H](C(=O)N[C@@H](CC(N)=O)C(=O)N[C@@H](CC)C(=O)N2CCC[C@H]2C(=O)N[C@@H](CCCNC(=N)N)C(=O)N[C@@H](CCCNC(=N)N)C(N)=O)C(C)C)cc1` [(1-adamantyl)acetyl-D-(O-ethyl)tyrosyl-phenylalanyl-valyl-asparaginyl-(2-amino)butyryl-prolyl-arginyl-argininamide] ({Acetyl(1-adamantyl)}-[dY](Et)FVN[Abu]PRR-NH2) was tested, and the “Antiantidiuretic pA2” value [1] was 8.11 ± 0.07 and the “Antivasopressor pA2” value [2] was 7.75 ± 0.07.

`CCOc1ccc(C[C@@H](NC(=O)CC2(S)CCCCC2)C(=O)N[C@@H](Cc2ccccc2)C(=O)N[C@H](C(=O)N[C@@H](CC(N)=O)C(=O)N[C@@H](CC)C(=O)N2CCC[C@H]2C(=O)N[C@@H](CCCNC(=N)N)C(=O)NCC(N)=O)C(C)C)cc1` [(1-mercaptocyclohexyl)acetyl-D-(O-ethyl)tyrosyl-phenylalanyl-valyl-asparaginyl-(2-amino)butyryl-prolyl-arginyl-glycinamide] ({Cyclohexylacetyl(1-SH)}-[dY](Et)FVN[Abu]PRG-NH2) was tested, and the “Antiantidiuretic pA2” value [1] was 7.42 ± 0.05 and the “Antivasopressor pA2” value [2] was 7.71 ± 0.05.

For `CCOc1ccc(C[C@@H](NC(=O)CC23CC4CC(CC(C4)C2)C3)C(=O)N[C@@H](Cc2ccccc2)C(=O)N[C@H](C(=O)N[C@@H](CC(N)=O)C(=O)N[C@@H](CCCN)C(=O)N2CCC[C@H]2C(=O)N[C@@H](CCCNC(=N)N)C(N)=O)C(C)C)cc1` [(1-adamantyl)acetyl-D-(O-ethyl)tyrosyl-phenylalanyl-valyl-asparaginyl-ornithyl-prolyl-argininamide] ({Acetyl(1-adamantyl)}-[dY](Et)FVN[Orn]PR-NH2), the “Antiantidiuretic pA2” value [1] was 7.81 ± 0.10 and the “Antivasopressor pA2” value [2] was 7.33 ± 0.06.

In the case of `CCOc1ccc(C[C@@H](NC(=O)CC23CC4CC(CC(C4)C2)C3)C(=O)N[C@@H](Cc2ccccc2)C(=O)N[C@H](C(=O)N[C@@H](CC(N)=O)C(=O)N[C@@H](CCCCN)C(=O)N2CCC[C@H]2C(=O)N[C@@H](CCCNC(=N)N)C(N)=O)C(C)C)cc1` [(1-adamantyl)acetyl-D-(O-ethyl)-tyrosyl-phenylalanyl-valyl-asaparaginyl-lysyl-prolyl-argininamide] ({Acetyl(1-adamantyl)}-[dY](Et)FVNKPR-NH2), the “Antiantidiuretic pA2” value [1] was 7.81 ± 0.08 and the “Antivasopressor pA2” value [2] was 8.02 ± 0.06.

With `CCOc1ccc(C[C@@H](NC(=O)CC23CC4CC(CC(C4)C2)C3)C(=O)N[C@@H](Cc2ccccc2)C(=O)N[C@H](C(=O)N[C@@H](CC(N)=O)C(=O)N[C@@H](CC)C(=O)N2CCC[C@H]2C(=O)N[C@H](CCCNC(=N)N)C(=O)N[C@@H](CCCNC(=N)N)C(N)=O)C(C)C)cc1` [(1-adamantyl)acetyl-D-(O-ethyl)tyrosyl-phenylalanyl-valyl-asparaginyl-(2-amino)butyryl-prolyl-D-arginyl-argininamide] ({Acetyl(1-adamantyl)}-[dY](Et)FVN[Abu]P[dR]R-NH2) the “Antiantidiuretic pA2” value [1] was 7.85 ± 0.08 and the “Antivasopressor pA2” value [2] was 7.49 ± 0.06.

With `CCOc1ccc(C[C@@H](NC(=O)CC23CC4CC(CC(C4)C2)C3)C(=O)N[C@@H](Cc2ccccc2)C(=O)N[C@H](C(=O)N[C@@H](CC(N)=O)C(=O)N[C@@H](CCCNC(=N)N)C(=O)N2CCC[C@H]2C(=O)N[C@@H](CCCNC(=N)N)C(N)=O)C(C)C)cc1` [(1-adamantyl)acetyl-D-(O-ethyl)tyrosyl-phenylalanyl-valyl-asparaginyl-arginyl-prolyl-argininamide] ({Acetyl(1-adamantyl)}-[dY](Et)FVNRPR-NH2) the “Antiantidiuretic pA2” value [1] was 7.73 ± 0.08 and the “Antivasopressor pA2” value [2] was 8.01 ± 0.05.

In the case of `CCOc1ccc(C[C@@H](NC(=O)CC23CC4CC(CC(C4)C2)C3)C(=O)N[C@@H](Cc2ccccc2)C(=O)N[C@H](C(=O)N[C@@H](CC(N)=O)C(=O)N[C@@H](CC)C(=O)N2CCC[C@H]2C(=O)N[C@@H](CCCNC(=N)N)C(=O)NCC(N)=O)C(C)C)cc1` [(1-adamantyl)acetyl-D-(O-ethyl)tyrosyl-phenylalanyl-valyl-asparaginyl-(2-amino)butyryl-prolyl-arginyl-glycinamide] ({Acetyl(1-adamantyl)}-[dY](Et)FVN[Abu]PRG-NH2), the “Antiantidiuretic pA2” value [1] was 7.50 ± 0.02 and the “Antivasopressor pA2” value [2] was 7.10 ± 0.07.

For `CCOc1ccc(C[C@@H](NC(=O)CC23CC4CC(CC(C4)C2)C3)C(=O)N[C@@H](Cc2ccccc2)C(=O)N[C@H](C(=O)N[C@@H](CC(N)=O)C(=O)N[C@@H](CC)C(=O)N2CCC[C@H]2C(=O)N[C@@H](CCCNC(=N)N)C(=O)N[C@@H](C)C(N)=O)C(C)C)cc1` [(1-adamantyl)acetyl-D-(O-ethyl)tyrosyl-phenylalanyl-valyl-asparaginyl-(2-amino)butyryl-prolyl-arginyl-alaninamide] ({Acetyl(1-adamantyl)}-[dY](Et)FVN[Abu]PRA-NH2), the “Antiantidiuretic pA2” value [1] was 6.55 ± 0.04 and the “Antivasopressor pA2” value [2] was 7.18 ± 0.04.

In the case of `CCOc1ccc(C[C@@H](NC(=O)CC2(S)CCCCC2)C(=O)N[C@@H](Cc2ccccc2)C(=O)N[C@H](C(=O)N[C@@H](CC(N)=O)C(=O)N[C@@H](CS)C(=O)N2CCC[C@H]2C(=O)N[C@@H](CCCNC(=N)N)C(=O)NCC(N)=O)C(C)C)cc1` [(1-mercaptocyclohexyl)acetyl-D-(O-ethyl)tyrosyl-phenylalanyl-valyl-asparaginyl-cysteinyl-prolyl-arginyl-glycinamide] ({Cyclohexylacetyl(1-SH)}-[dY](Et)FVNCPRG-NH2), the “Antiantidiuretic pA2” value [1] was 7.05 ± 0.08 and the “Antivasopressor pA2” value [2] was 7.51 ± 0.03.

With `CCOc1ccc(C[C@@H](NC(=O)CC23CC4CC(CC(C4)C2)C3)C(=O)N[C@@H](Cc2ccccc2)C(=O)N[C@H](C(=O)N[C@@H](CC(N)=O)C(=O)N[C@@H](CC)C(=O)N2CCC[C@H]2C(=O)N[C@@H](CCCNC(=N)N)C(N)=O)C(C)C)cc1` [(1-adamantyl)acetyl-D-(O-ethyl)tyrosyl-phenylalanyl-valyl-asparaginyl-(2-amino)butyryl-prolyl-argininamide] ({Acetyl(1-adamantyl)}-[dY](Et)FVN[Abu]PR-NH2) the “Antiantidiuretic pA2” value [1] was 7.20 ± 0.04 and the “Antivasopressor pA2” value [2] was 7.43 ± 0.06.

With `CCOc1ccc(C[C@@H](NC(=O)CC23CC4CC(CC(C4)C2)C3)C(=O)N[C@@H](Cc2ccccc2)C(=O)N[C@H](C(=O)N[C@@H](CC(N)=O)C(=O)N[C@@H](CC)C(=O)N2CCC[C@H]2C(=O)N[C@@H](CCCNC(=N)N)C(=O)NCCN)C(C)C)cc1` [(1-adamantyl)acetyl-D-(O-ethyl)tyrosyl-phenylalanyl-valyl-asparaginyl-(2-amino)butyryl-prolyl-arginine-N-(2-aminoethyl)amide] ({Acetyl(1-adamantyl)}-[dY](Et)FVN[Abu]PR-Ethylenediamine) the “Antiantidiuretic pA2” value [1] was 7.71 ± 0.09 and the “Antivasopressor pA2” value [2] was 7.33 ± 0.09.
